Patent US20230138851A1, “NOVEL ALKYNE DERIVATIVES” (CARNA BIOSCIENCES, INC., priority 2020, published 2023)
pIC50: −log10 of the molar value.

What was measured:
Type in all cases: biochemical
DYRK3 = molecular target: T1, DYRK3 (Homo sapiens, UniProt O43781); assay: Inhibition test on activity of DYRK family, mobility shift assay (MSA), DYRK3; details: ATP 20 μM, FITC-labeled DYRKtide peptide substrate, room temperature 1 hour; for pIC50: read-out: Inhibitory Activity 3 (IC50 against DYRK3)
T1 construct: purchased Carna Biosciences, Inc. 04-133
T1 sequence (O43781 1-588): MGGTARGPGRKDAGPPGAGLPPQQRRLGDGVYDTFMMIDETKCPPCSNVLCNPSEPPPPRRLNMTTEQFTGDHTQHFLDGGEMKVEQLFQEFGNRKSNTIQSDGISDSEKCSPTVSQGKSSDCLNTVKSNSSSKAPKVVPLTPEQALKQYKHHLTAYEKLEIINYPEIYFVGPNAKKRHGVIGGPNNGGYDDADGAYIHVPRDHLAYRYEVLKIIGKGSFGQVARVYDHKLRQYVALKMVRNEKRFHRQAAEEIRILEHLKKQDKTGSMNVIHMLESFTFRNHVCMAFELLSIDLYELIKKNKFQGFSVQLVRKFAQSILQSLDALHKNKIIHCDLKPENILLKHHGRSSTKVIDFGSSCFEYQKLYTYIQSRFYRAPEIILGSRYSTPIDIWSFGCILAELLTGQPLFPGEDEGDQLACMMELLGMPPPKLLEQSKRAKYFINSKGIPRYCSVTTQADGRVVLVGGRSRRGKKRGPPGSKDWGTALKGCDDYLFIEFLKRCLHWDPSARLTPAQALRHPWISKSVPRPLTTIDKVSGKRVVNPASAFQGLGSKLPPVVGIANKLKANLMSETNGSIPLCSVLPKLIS
How it was run: (§1)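 FITC-DYRKtide phosphorylation in 20 mM HEPES pH 7.5 with MgCl2; ATP in the substrate mix was 100 μM (DYRK1A), 200 μM (DYRK1B), 40 μM (DYRK2) or 20 μM (DYRK3). Reactions ran 1 h at room temperature; inhibition from P/(P+S) versus blank and DMSO control, IC50 by regression on log concentration.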

DYRK1B = molecular target: T2, DYRK1B (Homo sapiens, UniProt Q9Y463); assay: Inhibition test on activity of DYRK family, mobility shift assay (MSA), DYRK1B; parameters: Inhibitory Activity 1b (IC50 against DYRK1B): scale not given here; details: ATP 200 μM, FITC-labeled DYRKtide peptide substrate, room temperature 1 hour
T2 construct: purchased Carna Biosciences, Inc. 04-131
Procedure: [Inhibition Test on Activity of DYRK Family (DYRK1A, DYRK1B, DYRK2, and […])]
(Method for Measuring Kinase Activity)
The kinase activity was measured by mobility shift assay (MSA) method using QuickScout Screening Assist™ MSA (commercially available kit manufactured by Carna Biosciences, Inc.). The substrate of the kinase reaction used was an FITC-labeled DYRKtide peptide included in the kit. An assay buffer [20 mM HEPES, 0.01% Triton X-100™, 2 mM dithiothreitol, pH 7.5] was used to create a substrate mixture solution with a substrate (4 μM), MgCl2 (20 mM), and ATP (DYRK1A: 100 μM; DYRK1B: 200 μM; DYRK2: 40 μM; and DYRK3: 20 μM). In addition, kinases (DYRK1A: manufactured by Carna Biosciences, Inc., Cat. No. 04-130; DYRK1B: manufactured by Carna Biosciences, Inc., Cat. No. 04-131; DYRK2; manufactured by Carna Biosciences, Inc., Cat. No. 04-132; and DYRK3; manufactured by Carna Biosciences, Inc., Cat. No. 04-133) were diluted with the assay buffer to prepare enzyme solutions (DYRK1A: 0.2 ng/μL; DYRK1B: 0.08 ng/μL; DYRK2: 0.04 ng/μL; and DYRK3: 0.25 ng/μL). The 10 mM solution of the test compound in DMSO was further diluted with DMSO to 10 levels of the concentration (0.00003 mM, 0.0001 mM, 0.0003 mM, 0.001 mM, 0.003 mM, 0.01 mM, 0.03 mM, 0.1 mM, 0.3 mM, and 1 mM), each of which was subjected to 25-fold dilution with the assay buffer to obtain a drug solution (4% DMSO solution). 5 μL of the drug solution or a control solution (4% DMSO-assay buffer), 5 μL of the substrate mixture solution, and 10 μL of the enzyme solution were mixed in the wells of a polypropylene 384-well plate and allowed to react at room temperature for 1 hour, and then the reaction was quenched by adding 60 μL of the termination buffer included in the kit. Subsequently, the quantities of the substrates (S) and the phosphorylated substrate (P) in the reaction solution were measured using LabChip EZ Reader II system (manufactured by Caliper Life Sciences) according to the protocol of the assay kit.
(Method for Evaluating Inhibitory Activity)
The heights of the peaks of the “substrate” and the “phosphorylated substrate” were expressed as S and P, respectively, and a blank containing the assay buffer instead of the enzyme solution was also measured.
The inhibition rate (%) of the test compound was calculated according to the following equation:
Inhibition rate (%)=(1−(C−A)/(B−A))×100
wherein, A, B, and C represent P/(P+S) of the blank well, P/(P+S) of the control solution well, and P/(P+S) of the compound-containing well, respectively.
The IC50 value was calculated via a regression analysis of the inhibition rate and the test compound concentration (logarithmic value).
The inhibiting activities of representative compounds of the present invention are shown against DYRK1A, DYRK1B, DYRK2, and DYRK3 in Tables 7 and 8. The kinase activity inhibitory effect was indicated with the mark *** at an IC50 value of less than 0.01 μM; the mark ** at 0.01 μM or more and less than 0.1 μM; the mark * at 0.1 μM or more and less than 1 μM; and the mark — at 1 μM or more (N.D. indicates not measured).

DYRK1A = molecular target: T3, DYRK1A (Homo sapiens, UniProt Q13627); assay: Inhibition test on activity of DYRK family, mobility shift assay (MSA), DYRK1A; details: ATP 100 μM, FITC-labeled DYRKtide peptide substrate, room temperature 1 hour
T3 construct: purchased Carna Biosciences, Inc. 04-130
How it was run: as §1

DYRK2 = molecular target: T4, DYRK2 (Homo sapiens, UniProt Q92630); assay: Inhibition test on activity of DYRK family, mobility shift assay (MSA), DYRK2; details: ATP 40 μM, FITC-labeled DYRKtide peptide substrate, room temperature 1 hour; for pIC50: read-out: Inhibitory Activity 2 (IC50 against DYRK2)
T4 construct: purchased Carna Biosciences, Inc. 04-132
T4 sequence (Q92630 1-601): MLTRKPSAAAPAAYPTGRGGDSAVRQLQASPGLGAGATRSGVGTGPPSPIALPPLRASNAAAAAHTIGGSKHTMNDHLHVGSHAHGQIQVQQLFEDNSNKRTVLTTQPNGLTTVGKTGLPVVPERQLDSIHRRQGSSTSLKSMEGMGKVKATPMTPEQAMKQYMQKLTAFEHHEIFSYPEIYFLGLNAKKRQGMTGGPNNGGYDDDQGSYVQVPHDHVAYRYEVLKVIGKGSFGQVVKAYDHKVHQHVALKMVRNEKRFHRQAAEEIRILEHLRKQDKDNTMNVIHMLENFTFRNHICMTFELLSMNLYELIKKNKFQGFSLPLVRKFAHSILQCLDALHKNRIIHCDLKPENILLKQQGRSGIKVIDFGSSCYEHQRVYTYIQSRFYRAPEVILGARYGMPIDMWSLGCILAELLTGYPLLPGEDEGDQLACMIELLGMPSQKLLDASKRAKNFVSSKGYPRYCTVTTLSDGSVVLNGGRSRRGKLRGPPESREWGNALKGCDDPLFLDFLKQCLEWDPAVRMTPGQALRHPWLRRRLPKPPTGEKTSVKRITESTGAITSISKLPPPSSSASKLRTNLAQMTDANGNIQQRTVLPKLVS
How it was run: as §1

T2 sequence (Q9Y463 whole entry): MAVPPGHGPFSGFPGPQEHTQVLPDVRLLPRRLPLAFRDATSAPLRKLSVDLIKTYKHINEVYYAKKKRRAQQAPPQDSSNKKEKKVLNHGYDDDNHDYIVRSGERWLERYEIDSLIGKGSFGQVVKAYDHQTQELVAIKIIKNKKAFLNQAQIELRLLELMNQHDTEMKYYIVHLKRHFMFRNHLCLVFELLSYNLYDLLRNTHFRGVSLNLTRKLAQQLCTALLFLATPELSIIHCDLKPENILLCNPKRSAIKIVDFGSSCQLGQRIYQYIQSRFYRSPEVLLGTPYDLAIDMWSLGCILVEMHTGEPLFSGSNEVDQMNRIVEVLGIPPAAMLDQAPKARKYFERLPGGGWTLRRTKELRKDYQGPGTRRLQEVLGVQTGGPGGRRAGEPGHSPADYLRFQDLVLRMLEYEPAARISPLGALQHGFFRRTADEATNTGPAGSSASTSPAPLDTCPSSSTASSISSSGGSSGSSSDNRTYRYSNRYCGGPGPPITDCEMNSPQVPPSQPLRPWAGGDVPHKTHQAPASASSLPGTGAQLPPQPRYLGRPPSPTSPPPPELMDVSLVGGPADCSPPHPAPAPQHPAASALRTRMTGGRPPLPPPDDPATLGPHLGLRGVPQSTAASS

Compound: CC#CC1CNC(=O)N1c1nc2c3c(ccc2s1)OCO3 (racemic) [Example 1, (RS)-1-([1,3]dioxolo[4′,5′:5,6]benzo[1,2-d]thiazol-7-yl)-5-(prop-1-yn-1-yl)imidazolidin-2-one]
- Inhibitory Activity 3 (IC50 against DYRK3) (DYRK3): * *
- Inhibitory Activity 1b (IC50 against DYRK1B) (DYRK1B): * * *
- Inhibitory Activity 1a (IC50 against DYRK1A) (DYRK1A): * * *
- pIC50 (DYRK2): 6.00 to 7.00

Compound: CC#CC1CNC(=O)N1c1nc2c3c(ccc2s1)OCC3 (racemic) [Example 8, (RS)-1-(7,8-dihydrobenzofuro[4,5-d]thiazol-2-yl)-5-(prop-1-yn-1-yl)imidazolidin-2-one]
- Inhibitory Activity 3 (IC50 against DYRK3) (DYRK3): * *
- Inhibitory Activity 1b (IC50 against DYRK1B) (DYRK1B): * * *
- Inhibitory Activity 1a (IC50 against DYRK1A) (DYRK1A): * * *
- pIC50 (DYRK2): 6.00 to 7.00

Compound: CC#CC1CNC(=O)N1c1nc2c(ccc3nccnc32)s1 (racemic) [Example 24, (RS)-5-(prop-1-yn-1-yl)-1-(thiazolo[4,5-f]quinoxalin-2-yl)imidazolidin-2-one]
- pIC50 (DYRK3): 6.00 to 7.00
- Inhibitory Activity 1b (IC50 against DYRK1B) (DYRK1B): * * *
- Inhibitory Activity 1a (IC50 against DYRK1A) (DYRK1A): * * *
- pIC50 (DYRK2): 6.00 to 7.00

Compound: CC#CC1CNC(=O)N1c1nc2c3c(ccc2s1)OCCN3C (racemic) [Example 25, (RS)-1-(9-methyl-8,9-dihydro-7H-thiazolo[4′,5′;3,4]benz[1,2-b][1,4]oxazin-2-yl)-5-(prop-1-yn-1-yl)imidazolidin-2-one]
- pIC50 (DYRK3): 6.00 to 7.00
- Inhibitory Activity 1b (IC50 against DYRK1B) (DYRK1B): * * *
- Inhibitory Activity 1a (IC50 against DYRK1A) (DYRK1A): * * *
- pIC50 (DYRK2): 6.00 to 7.00

Compound: CC#CC1CNC(=O)N1c1nc2c(ccc3ncn(C)c32)s1 (racemic) [Example 26, (RS)-1-(8-methyl-8H-imidazo[4′,5′:5,6]benz[1,2-d]thiazol-2-yl)-5-(prop-1-yn-1-yl)imidazolidin-2-one]
- Inhibitory Activity 3 (IC50 against DYRK3) (DYRK3): * *
- Inhibitory Activity 1b (IC50 against DYRK1B) (DYRK1B): * * *
- Inhibitory Activity 1a (IC50 against DYRK1A) (DYRK1A): * * *
- pIC50 (DYRK2): 6.00 to 7.00

Compound: CC#CC1CNC(=O)N1c1nc2c(ccc3ncccc32)s1 (racemic) [Example 27, (RS)-5-(prop-1-yn-1-yl)-1-(thiazolo[4,5-f]quinolin-2-yl)imidazolidin-2-one]
- Inhibitory Activity 3 (IC50 against DYRK3) (DYRK3): * *
- Inhibitory Activity 1b (IC50 against DYRK1B) (DYRK1B): * * *
- Inhibitory Activity 1a (IC50 against DYRK1A) (DYRK1A): * **
- pIC50 (DYRK2): 6.00 to 7.00

Compound: CC#CC1CNC(=O)N1c1nc2c(ccc3nnn(C)c32)s1 (racemic) [Example 28, (RS)-1-(1-methyl-1H-thiazolo[4′,5′:3,4]benz[1,2-d][1,2,3]triazol-7-yl)-5-(prop-1-yn-1-yl)imidazolidin-2-one]
- pIC50 (DYRK3): 6.00 to 7.00
- Inhibitory Activity 1b (IC50 against DYRK1B) (DYRK1B): * * *
- Inhibitory Activity 1a (IC50 against DYRK1A) (DYRK1A): * * *
- pIC50 (DYRK2): ≤ 6.00

Compound: CC#CC1CNC(=O)N1c1nc2c(ccc3ncn(CCO)c32)s1 (racemic) [Example 31, (RS)-1-[8-(2-hydroxyethyl)-8H-imidazo[4′,5′:5,6]benz[1,2-d]thiazol-2-yl]-5-(prop-1-yn-1-yl)imidazolidin-2-one]
- pIC50 (DYRK3): 6.00 to 7.00
- Inhibitory Activity 1b (IC50 against DYRK1B) (DYRK1B): * * *
- Inhibitory Activity 1a (IC50 against DYRK1A) (DYRK1A): * * *
- pIC50 (DYRK2): 6.00 to 7.00

Compound: CC#CC1CNC(=O)N1c1nc2c(ccc3ncn(C4CCOCC4)c32)s1 (racemic) [Example 32, (RS)-5-(prop-1-yn-1-yl)-1-[8-(tetrahydro-2H-pyran-4-yl)-8H-imidazo[4′,5′:5,6]benz [1,2-d]thiazol-2-yl]imidazolidin-2-one]
- Inhibitory Activity 3 (IC50 against DYRK3) (DYRK3): * *
- Inhibitory Activity 1b (IC50 against DYRK1B) (DYRK1B): * * *
- Inhibitory Activity 1a (IC50 against DYRK1A) (DYRK1A): * * *
- Inhibitory Activity 2 (IC50 against DYRK2) (DYRK2): * *

Compound: CC#CC1CNC(=O)N1c1nc2c(ccc3ncn(CCOC)c32)s1 (racemic) [Example 33, (RS)-1-[8-(2-methoxyethyl)-8H-imidazo[4′,5′:5,6]benz[1,2-d]thiazol-2-yl]-5-(prop-1-yn-1-yl)imidazolidin-2-one]
- pIC50 (DYRK3): 6.00 to 7.00
- Inhibitory Activity 1b (IC50 against DYRK1B) (DYRK1B): * *
- Inhibitory Activity 1a (IC50 against DYRK1A) (DYRK1A): * *
- pIC50 (DYRK2): 6.00 to 7.00

Compound: CC#C[C@H]1[C@H]([C@H](C)O)NC(=O)N1c1nc2c3c(ccc2s1)OCC3 [Example 83, (4R,5S)-1-(7,8-dihydrobenzofuro[4,5-d]thiazol-2-yl)-4-((S)-1-hydroxyethyl)-5-(prop-1-yn-1-yl)imidazolidin-2-one]
- pIC50 (DYRK3): ≤ 6.00
- pIC50 (DYRK1A; read-out: Inhibitory Activity 1a (IC50 against DYRK1A)): 7.00 to 8.00
- pIC50 (DYRK2): ≤ 6.00

Compound: CC#C[C@@H]1[C@H]([C@H](C)O)NC(=O)N1c1nc2c3c(ccc2s1)OCC3 [Example 84, (4R,5R)-1-(7,8-dihydrobenzofuro[4,5-d]thiazol-2-yl)-4-((S)-1-hydroxyethyl)-5-(prop-1-yn-1-yl)imidazolidin-2-one]
- pIC50 (DYRK3): 6.00 to 7.00
- Inhibitory Activity 1a (IC50 against DYRK1A) (DYRK1A): * * *
- pIC50 (DYRK2): 6.00 to 7.00
